According to patent US6599893B2, “Cephalosporin antibiotics and prodrugs thereof” (Essential Therapeutics, Inc., priority 2000, dated 2003):
≈ marks a conversion by molar mass, not a printed value.

Legend:
Assay type in all cases: cell-based
[1] = test system: Staphylococcus aureus COL (MRSA, non-β-lactamase producing); assay: Broth microdilution MIC, S. aureus COL; conditions: Staphylococcus aureus COL (MRSA, non-β-lactamase producing); for MIC: read-out: MIC S. a. COL
Method: (§1) Compounds were evaluated for antimicrobial activity against a panel of bacterial strains using a broth microdilution assay performed as recommended by the NCCLS (NCCLS (National Committee for Clinical Laboratory Standards). 1993. Methods for dilution antimicrobial susceptibility tests for bacteria that grow aerobically. NCCLS Document M7-A3, 1993. In: NCCLS Antimicrobial Susceptibility Testing, 3rd Ed.)
(§2) The minimum inhibitory concentration (MIC) is defined as the lowest concentration of a compound that prevents the growth of the bacteria.

[2] = test system: Staphylococcus aureus 76 (MRSA, β-lactamase producing); assay: Broth microdilution MIC, S. aureus 76; conditions: Staphylococcus aureus 76 (MRSA, β-lactamase producing); for MIC: read-out: MIC S. a. 76
Method: as §1, §2

[3] = test system: Enterococcus faecalis ATCC 29212; assay: Broth microdilution MIC, E. faecalis ATCC 29212; conditions: Enterococcus faecalis ATCC 29212; for MIC: ATCC29212, read-out: MIC E. f. 29212
Method: as §1, §2

[4] = test system: Enterococcus faecium ATCC 35667; assay: Broth microdilution MIC, E. faecium ATCC 35667; conditions: Enterococcus faecium ATCC 35667; for MIC: ATCC35667, read-out: MIC E. f. 35667
Method: as §1, §2

[5] = test system: Staphylococcus aureus ATCC 29213 (MSSA); assay: Broth microdilution MIC, S. aureus ATCC 29213; conditions: Staphylococcus aureus ATCC 29213 (MSSA); for MIC: read-out: MIC S. a. 29213
Method: as §1, §2

[6] = test system: Staphylococcus aureus Smith (MSSA); assay: Broth microdilution MIC, S. aureus Smith; conditions: Staphylococcus aureus Smith (MSSA); for MIC: read-out: MIC S. a. Smith
Method: as §1, §2

SMILES	MIC [1] [µg/mL]	MIC [2] [µg/mL]	MIC [3] [µg/mL]	MIC [4] [µg/mL]	MIC [5] [µg/mL]	MIC [6] [µg/mL]	MIC S. a. COL [1] [µg/mL]	MIC S. a. 76 [2] [µg/mL]	MIC E. f. 35667 [4] [µg/mL]	MIC S. a. 29213 [5] [µg/mL]	MIC E. f. 29212 [3] [µg/mL]	MIC S. a. Smith [6] [µg/mL]
C=CCO/N=C(\C(=O)N[C@@H]1C(=O)N2C(C(=O)O)=C(Sc3ccnn3-c3ccccc3)CS[C@H]12)c1csc(N)n1 [Compound 20]	8 (≈ 13.7 µM)	16 (≈ 27.4 µM)	32 (≈ 54.8 µM)	32 (≈ 54.8 µM)	1 (≈ 1.71 µM)	0.5 (≈ 0.857 µM)	–	–	–	–	–	–
Nc1nc(C(=NO)C(=O)N[C@@H]2C(=O)N3C(C(=O)O)=C(Sc4nnco4)CSC23)c(Cl)s1 (stereo partly drawn) [Compound 48, (7R)-7-[2-(2-Amino-5-chlorothiazol-4-yl)-2-hydroxyiminoacetylamino]-3-([1,3,4]oxadiazol-2-ylsulfanyl)-8-oxo-5-thia-1-aza-bicyclo[4.2.0]oct-2-ene-2-carboxylic acid]	2 (≈ 3.97 µM)	2 (≈ 3.97 µM)	0.25 (≈ 0.496 µM)	1 (≈ 1.98 µM)	0.25 (≈ 0.496 µM)	–	–	–	–	–	–	–
CC(C)(C)O/N=C(\C(=O)N[C@@H]1C(=O)N2C(C(=O)O)=C(Sc3ccnn3-c3ccccc3)CS[C@H]12)c1csc(N)n1 [Compound 18]	8 (≈ 13.3 µM)	16 (≈ 26.7 µM)	2 (≈ 3.33 µM)	16 (≈ 26.7 µM)	1 (≈ 1.67 µM)	1 (≈ 1.67 µM)	–	–	–	–	–	–
Cn1ccnc1SC1=C(C(=O)O)N2C(=O)[C@@H](NC(=O)/C(=N\O)c3nc(N)sc3Cl)[C@H]2SC1 [Compound 31]	–	–	–	–	–	–	16 (≈ 31 µM)	32 (≈ 62 µM)	16 (≈ 31 µM)	0.5 (≈ 0.969 µM)	1 (≈ 1.94 µM)	0.125 (≈ 0.242 µM)
Nc1nc(/C(=N/OCCF)C(=O)N[C@@H]2C(=O)N3C(C(=O)O)=C(Sc4ccnn4-c4ccccc4)CS[C@H]23)cs1 [Compound 14]	8 (≈ 13.6 µM)	16 (≈ 27.1 µM)	32 (≈ 54.3 µM)	16 (≈ 27.1 µM)	1 (≈ 1.7 µM)	–	–	–	–	–	–	–
Nc1nc(C(=NO)C(=O)N[C@@H]2C(=O)N3C(C(=O)O)=C(Sc4nc(Cl)ns4)CSC23)c(Cl)s1 (stereo partly drawn) [Compound 52, (7R)-7-[2-(2-Amino-5-chlorothiazol-4-yl)-2-hydroxyiminoacetylamino]-3-(3-chloro-[1,2,4]thiadiazol-5-ylsulfanyl)-8-oxo-5-thia-1-aza-bicyclo[4.2.0]oct-2-ene-2-carboxylic acid]	1 (≈ 1.8 µM)	2 (≈ 3.61 µM)	0.25 (≈ 0.451 µM)	1 (≈ 1.8 µM)	0.25 (≈ 0.451 µM)	–	–	–	–	–	–	–
Nc1nc(C(=NO)C(=O)N[C@@H]2C(=O)N3C(C(=O)O)=C(Sc4nncs4)CSC23)ns1 (stereo partly drawn) [Compound 50, (7R)-7-[2-(5-Amino-[1,2,4]thiadiazol-3-yl)-2-hydroxyiminoacetylamino]-8-oxo-3-([1,3,4]thiadiazol-2-ylsulfanyl)-5-thia-1-aza-bicyclo [4.2.0]oct-2-ene-2-carboxylic acid]	4 (≈ 8.22 µM)	8 (≈ 16.4 µM)	1 (≈ 2.06 µM)	2 (≈ 4.11 µM)	0.25 (≈ 0.514 µM)	–	–	–	–	–	–	–
Cc1noc(SC2=C(C(=O)O)N3C(=O)[C@@H](NC(=O)C(=NO)c4nc(N)sc4Cl)C3SC2)n1 (stereo partly drawn) [Compound 45, (7R)-7-[2-(2-Amino-5-chlorothiazol-4-yl)-2-hydroxyiminoacetylamino]-3-(3-methyl-[1,2,4]oxadiazol-5-ylsulfanyl)-8-oxo-5-thia-1-aza-bicyclo[4.2.0]oct-2-ene-2-carboxylic acid]	4 (≈ 7.72 µM)	4 (≈ 7.72 µM)	0.125 (≈ 0.241 µM)	0.5 (≈ 0.965 µM)	0.5 (≈ 0.965 µM)	1 (≈ 1.93 µM)	–	–	–	–	–	–
Nc1nc(C(=NO)C(=O)N[C@@H]2C(=O)N3C(C(=O)O)=C(Sc4nnc(N)s4)CSC23)cs1 (stereo partly drawn) [Compound 49, 3-(5-Amino-[1,3,4]thiadiazol-2-ylsulfanyl)-(7R)-7-[2-(2-aminothiazol-4-yl)-2-hydroxyiminoacetylamino]-8-oxo-5-thia-1-aza-bicyclo[4.2.0]oct-2-ene-2-carboxylic acid]	4 (≈ 7.99 µM)	8 (≈ 16 µM)	0.5 (≈ 0.999 µM)	1 (≈ 2 µM)	0.25 (≈ 0.499 µM)	–	–	–	–	–	–	–
Nc1nsc(SC2=C(C(=O)O)N3C(=O)[C@@H](NC(=O)C(=NO)c4nc(N)sc4Cl)C3SC2)n1 (stereo partly drawn) [Compound 47, (7R)-7-[2-(2-Amino-5-chlorothiazol-4-yl)-2-hydroxyiminoacetylamino]-3-(3-amino-[1,2,4]thiadiazol-5-ylsulfanyl)-8-oxo-5-thia-1-aza-bicyclo[4.2.0]oct-2-ene-2-carboxylic acid]	0.5 (≈ 0.935 µM)	1 (≈ 1.87 µM)	0.125 (≈ 0.234 µM)	0.5 (≈ 0.935 µM)	0.125 (≈ 0.234 µM)	0.25 (≈ 0.467 µM)	–	–	–	–	–	–
Nc1nc(CC(=O)N[C@@H]2C(=O)N3C(C(=O)O)=C(Sc4nnc(N)s4)CSC23)cs1 (stereo partly drawn) [Compound 51, 3-(5-Amino-[1,3,4]thiadiazol-2-ylsulfanyl)-(7R)-7-[2-(2-amino-thiazol-4-yl)-acetylamino]-8-oxo-5-thia-1-aza-bicyclo[4.2.0]oct-2-ene-2-carboxylic acid]	4 (≈ 8.48 µM)	16 (≈ 33.9 µM)	2 (≈ 4.24 µM)	4 (≈ 8.48 µM)	0.125 (≈ 0.265 µM)	0.06 (≈ 0.127 µM)	–	–	–	–	–	–
CON=C(C(=O)NC1C(=O)N2C(C(=O)O)=C(Sc3ccc(Br)cc3)CSC12)c1csc(N)n1 (stereo not shown) [Compound 6]	–	–	–	–	–	–	–	32 (≈ 56.1 µM)	16 (≈ 28 µM)	<0.015	16 (≈ 28 µM)	–
N#Cc1ccccc1SC1=C(C(=O)O)N2C(=O)[C@@H](NC(=O)/C(=N\OC3CCCC3)c3csc(N)n3)[C@H]2SC1 [Compound 12]	–	–	–	–	–	–	4 (≈ 7.01 µM)	8 (≈ 14 µM)	8 (≈ 14 µM)	1 (≈ 1.75 µM)	8 (≈ 14 µM)	–
CSc1nnc(SC2=C(C(=O)O)N3C(=O)[C@@H](NC(=O)C(=NO)c4nc(N)sc4Cl)C3SC2)s1 (stereo partly drawn) [Compound 44, (7R)-7-[2-(2-Amino-5-chlorothiazol-4-yl)-2-hydroxyiminoacetylamino]-3-(5-methylsulfanyl-[1,3,4]thiadiazol-2-ylsulfanyl)-8-oxo-5-thia-1-aza-bicyclo[4.2.0]oct-2-ene-2-carboxylic acid]	1 (≈ 1.77 µM)	1 (≈ 1.77 µM)	0.25 (≈ 0.442 µM)	1 (≈ 1.77 µM)	0.25 (≈ 0.442 µM)	–	–	–	–	–	–	–

More lines, now with the values ahead:

MIC [1] [µg/mL]	MIC [2] [µg/mL]	MIC [3] [µg/mL]	MIC [4] [µg/mL]	MIC [5] [µg/mL]	MIC [6] [µg/mL]	MIC S. a. COL [1] [µg/mL]	MIC S. a. 76 [2] [µg/mL]	MIC E. f. 35667 [4] [µg/mL]	MIC S. a. 29213 [5] [µg/mL]	MIC E. f. 29212 [3] [µg/mL]	MIC S. a. Smith [6] [µg/mL]	SMILES
–	–	–	–	–	–	32 (≈ 51.8 µM)	32 (≈ 51.8 µM)	32 (≈ 51.8 µM)	1 (≈ 1.62 µM)	–	–	CON=C(C(=O)NC1C(=O)N2C(C(=O)O)=C(Sc3ccccc3I)CSC12)c1csc(N)n1 (stereo not shown) [Compound 8]
–	–	–	–	–	–	4 (≈ 7.22 µM)	8 (≈ 14.4 µM)	2 (≈ 3.61 µM)	0.5 (≈ 0.903 µM)	2 (≈ 3.61 µM)	–	Nc1nc(C(=NO)C(=O)NC2C(=O)N3C(C(=O)O)=C(Sc4ccccc4-c4ccccc4)CSC23)cs1 (stereo not shown) [Compound 10]
–	–	–	–	–	–	2 (≈ 3.31 µM)	4 (≈ 6.63 µM)	2 (≈ 3.31 µM)	<0.25	–	–	Nc1nc(C(=NO)C(=O)NC2C(=O)N3C(C(=O)O)=C(Sc4ccccc4I)CSC23)cs1 (stereo not shown) [Compound 7]
–	–	–	–	–	–	1 (≈ 1.49 µM)	2 (≈ 2.98 µM)	2 (≈ 2.98 µM)	<0.25	2 (≈ 2.98 µM)	–	Nc1nc(/C(=N/OC2CCCC2)C(=O)N[C@@H]2C(=O)N3C(C(=O)O)=C(Sc4ccccc4I)CS[C@H]23)cs1 [Compound 9]
–	–	–	–	–	–	16 (≈ 28 µM)	16 (≈ 28 µM)	32 (≈ 56.1 µM)	0.5 (≈ 0.876 µM)	>32	–	CON=C(C(=O)NC1C(=O)N2C(C(=O)O)=C(Sc3ccccc3Br)CSC12)c1csc(N)n1 (stereo not shown) [Compound 5]
16 (≈ 29.4 µM)	32 (≈ 58.9 µM)	2 (≈ 3.68 µM)	8 (≈ 14.7 µM)	1 (≈ 1.84 µM)	–	–	–	–	–	–	–	Nc1nc(/C(=N/O)C(=O)N[C@@H]2C(=O)N3C(C(=O)O)=C(Sc4ccnn4-c4ccccc4)CS[C@H]23)cs1 [Compound 15]
